Assay results from patent US7504430B2, “Maleiimide anti-tumor phosphatase inhibitors” (The United States of America as represented by the …, priority 2004, dated 2009).
Like-named read-outs stand apart in the source and are kept apart here. Each block holds one molecule with its values, some of them ahead of it.

Assays:
Hep3B cells = assay: Hep3B cell growth inhibition (Hoechst 33258 DNA fluorescence, 3 days of treatment); format: cell-based, human; conditions: for Potency at Hep3B cell growth inhibition compared with Cpd5: versus Cpd5 (2-(2-mercaptoethanol)-3-methyl-1,4-naphthoquinone); for Inhibition of Hep3B cell growth: even at 10 μM
Protocol: Hep3B or JM-1 hepatoma cells were grown in tissue culture in MEM medium supplemented with 10% fetal bovine serum. Cells were plated at a density of 1×104. […] Culture medium was replaced every day with new medium containing the inhibitor. After 3 days of treatment, the cells were rinsed once with PBS and frozen at −80° C. until counting. Frozen cells were thawed and incubated with the DNA-staining dye Hoescht 33258. The cell numbers were determined by measuring the dye-bound DNA fluorescence by a fluorescent plate reader.
(§1) IC50 was determined from the growth inhibition curves.

HR = assay: Tumor cell line growth inhibition, HR; format: cell-based; conditions: Homo sapiens, 72 h, Stomach, cultured for 3 days, maximum concentration 20 μmol/L
Protocol: as §1

CD45 = biological target: T1, CD45 (Homo sapiens, UniProt P08575); assay: Phosphatase inhibition, CD45; format: biochemical
T1 sequence (P08575 26-1306): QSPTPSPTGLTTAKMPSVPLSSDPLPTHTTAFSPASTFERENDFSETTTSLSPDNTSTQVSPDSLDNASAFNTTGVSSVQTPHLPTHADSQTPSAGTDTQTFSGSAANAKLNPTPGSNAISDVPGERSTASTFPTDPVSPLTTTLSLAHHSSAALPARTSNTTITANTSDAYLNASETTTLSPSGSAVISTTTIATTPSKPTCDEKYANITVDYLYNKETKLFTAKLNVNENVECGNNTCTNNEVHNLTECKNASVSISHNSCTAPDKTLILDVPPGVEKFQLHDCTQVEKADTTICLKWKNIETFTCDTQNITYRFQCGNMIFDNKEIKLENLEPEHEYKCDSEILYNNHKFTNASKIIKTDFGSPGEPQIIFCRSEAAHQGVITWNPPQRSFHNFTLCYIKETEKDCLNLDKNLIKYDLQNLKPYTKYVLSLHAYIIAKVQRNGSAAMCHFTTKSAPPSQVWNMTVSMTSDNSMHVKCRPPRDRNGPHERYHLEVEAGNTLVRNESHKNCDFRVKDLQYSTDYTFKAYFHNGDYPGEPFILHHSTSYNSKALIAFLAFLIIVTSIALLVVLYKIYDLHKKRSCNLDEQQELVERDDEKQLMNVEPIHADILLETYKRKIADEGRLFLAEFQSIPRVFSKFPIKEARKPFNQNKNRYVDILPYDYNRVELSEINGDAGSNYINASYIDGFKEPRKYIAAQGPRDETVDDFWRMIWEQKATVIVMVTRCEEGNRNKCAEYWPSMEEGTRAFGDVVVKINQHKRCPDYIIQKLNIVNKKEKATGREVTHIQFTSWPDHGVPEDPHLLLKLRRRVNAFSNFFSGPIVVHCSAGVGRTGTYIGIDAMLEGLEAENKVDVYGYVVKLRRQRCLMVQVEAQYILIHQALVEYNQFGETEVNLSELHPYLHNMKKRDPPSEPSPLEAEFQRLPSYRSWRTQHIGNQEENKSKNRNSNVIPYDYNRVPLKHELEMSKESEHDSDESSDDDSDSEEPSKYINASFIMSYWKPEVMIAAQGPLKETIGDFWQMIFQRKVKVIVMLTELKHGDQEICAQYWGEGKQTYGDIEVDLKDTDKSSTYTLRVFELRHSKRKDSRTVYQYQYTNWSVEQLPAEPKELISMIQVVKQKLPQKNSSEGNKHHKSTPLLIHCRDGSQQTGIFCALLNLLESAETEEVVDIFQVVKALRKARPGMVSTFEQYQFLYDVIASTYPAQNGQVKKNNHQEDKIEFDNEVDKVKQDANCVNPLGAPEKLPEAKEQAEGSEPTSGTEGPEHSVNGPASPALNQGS

[1] = test system: primary cultures of normal hepatocytes; assay: DNA synthesis in primary cultures of normal hepatocytes versus Hep3B hepatoma cells; format: cell-based
JM-1 rat hepatoma cells = assay: Orthotopic rat tumor model, JM-1 hepatoma cells seeded into livers of F344 rats; format: in vivo; conditions: 1 mg/kg intraperitoneal, every other day, 5 injections, control rats averaged 11 tumors per liver
Protocol: JM-1 rat hepatoma cells were seeded into livers of F344 rats. […] The control rats had on the average 11 tumors per liver, whereas the PM-20-treated rats had 2 tumors per rat.

PYP1B = biological target: T2, PYP1B (Homo sapiens, UniProt P18031); assay: Phosphatase inhibition, PYP1B; format: biochemical
T2 sequence (P18031 1-435): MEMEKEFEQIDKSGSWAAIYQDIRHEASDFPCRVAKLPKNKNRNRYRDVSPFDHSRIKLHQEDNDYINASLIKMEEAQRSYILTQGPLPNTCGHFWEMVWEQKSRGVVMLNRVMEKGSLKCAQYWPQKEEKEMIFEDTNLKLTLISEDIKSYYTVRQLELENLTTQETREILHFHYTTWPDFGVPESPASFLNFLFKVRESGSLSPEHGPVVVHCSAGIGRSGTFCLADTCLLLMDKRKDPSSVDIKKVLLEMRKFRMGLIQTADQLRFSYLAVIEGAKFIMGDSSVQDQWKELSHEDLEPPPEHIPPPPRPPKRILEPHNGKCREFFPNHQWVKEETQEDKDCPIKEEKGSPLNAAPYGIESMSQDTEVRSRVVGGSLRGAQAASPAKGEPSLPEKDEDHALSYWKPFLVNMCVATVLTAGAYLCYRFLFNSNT

FemX = assay: Tumor cell line growth inhibition, FemX; format: cell-based; conditions: Homo sapiens, Fem-X, 72 h, Skin, cultured for 3 days, maximum concentration 20 μmol/L
Protocol: as §1

MCF7 = assay: Tumor cell line growth inhibition, MCF7; format: cell-based; conditions: Homo sapiens, 72 h; Breast, MCF7, cultured for 3 days; maximum concentration 20 μmol/L
Protocol: as §1

EGFR and ERK1/2 = assay: Tyrosine phosphorylation of EGFR and ERK1/2; format: cell-based
SKBR3 = assay: Tumor cell line growth inhibition, SKBR3; format: cell-based; conditions: Homo sapiens, SK-BR-3, 72 h; Breast, SKBR3, cultured for 3 days; maximum concentration 20 μmol/L
Protocol: as §1

LS180 = assay: Tumor cell line growth inhibition, LS180; format: cell-based; conditions: Homo sapiens, 72 h; Colon, LS180, cultured for 3 days; maximum concentration 20 μmol/L
Protocol: as §1

cell cycle = assay: Cell cycle analysis; format: cell-based; conditions: with upregulation of tyrosine phosphorylation of Cdk1, 2 and 4
PCI = assay: Tumor cell line growth inhibition, PCI; format: cell-based; conditions: Homo sapiens, 72 h, Tongue, cultured for 3 days, maximum concentration 20 μmol/L
Protocol: as §1

[2] = biological target: T3, catalytic domain of Cdc25B (Homo sapiens, UniProt P30305); assay: Binding to the catalytic domain of Cdc25B
T3 sequence (P30305 431-538 limits assumed): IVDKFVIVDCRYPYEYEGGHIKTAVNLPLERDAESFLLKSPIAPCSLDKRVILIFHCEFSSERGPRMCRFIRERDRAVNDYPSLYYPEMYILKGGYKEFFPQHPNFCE

MKP1 = biological target: T4, MKP1 (Homo sapiens, UniProt P28562); assay: Phosphatase inhibition, MKP1; format: biochemical
T4 sequence (P28562 1-367): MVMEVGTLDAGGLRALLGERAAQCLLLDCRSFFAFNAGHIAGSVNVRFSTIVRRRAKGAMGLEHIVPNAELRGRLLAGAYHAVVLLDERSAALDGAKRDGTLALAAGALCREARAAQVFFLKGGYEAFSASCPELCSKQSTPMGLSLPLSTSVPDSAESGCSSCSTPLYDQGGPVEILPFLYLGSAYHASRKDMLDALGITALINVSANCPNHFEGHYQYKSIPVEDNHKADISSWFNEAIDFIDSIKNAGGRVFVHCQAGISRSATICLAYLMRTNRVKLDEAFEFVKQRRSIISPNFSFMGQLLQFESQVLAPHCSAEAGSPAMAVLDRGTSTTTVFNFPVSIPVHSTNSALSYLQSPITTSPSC

[3] = orally in mice; cited from earlier work
[4] = Homo sapiens, 72 h, Hep3B cells, 3 days of treatment, read-out: IC50, Hep3B cell growth inhibition
[5] = Homo sapiens, 72 h, Liver, Hep3B, cultured for 3 days, maximum concentration 20 μmol/L, read-out: IC50

IC50 (Hep3B cells; [4]): 6 µM
Compound: COc1ccc(N2C(=O)C(SCCO)=C(SCCO)C2=O)cc1 [PM-14, 3,4-bisthiolethanol-1-p-methoxyphenyl maleiimide]

IC50 (HR): 6 µM
Activity against CD45 (CD45): essentially no activity
Concentration needed to inhibit DNA synthesis, normal hepatocytes versus Hep3B [1]: 10 fold
IC50 (Hep3B cells; [4]): 0.7 µM
IC50 (Hep3B cells; [5]): 0.7 µM
Activity against PYP1B (PYP1B): essentially no activity
IC50 (FemX): 2.5 µM
IC50 (MCF7): 4 µM
IC50 (SKBR3): 6 µM
IC50 (LS180): > 20 µM
IC50 (PCI): 2.5 µM
Binding to the catalytic domain of Cdc25B [2]: binds to the catalytic domain of Cdc25B
IC50 (MKP1): 75 µM
Compound: O=C1C(SCCO)=C(SCCO)C(=O)N1c1ccc(-c2ccccc2)cc1 [PM-20, N-Biphenyl-4-yl-3,4-bis-(2-hydroxy-ethylsulfanyl)-maleimide]
Number of tumors (JM-1 rat hepatoma cells): 2 tumors per rat
Potency at Hep3B cell growth inhibition compared with Cpd5 (Hep3B cells): more potent inhibitors than Cpd5
Inhibition of de-phosphorylation of ERK 1/2 (EGFR and ERK1/2): potent inhibitor
Tyrosine phosphorylation of EGFR and ERK1/2 (EGFR and ERK1/2): appear to induce tyrosine phosphorylation
Cell cycle effect (cell cycle): block, mainly in the G1 phase of cell cycle

IC50 (HR): > 20 µM
IC50 (Hep3B cells; [5]): > 20 µM
IC50 (FemX): > 20 µM
IC50 (MCF7): > 20 µM
IC50 (SKBR3): > 20 µM
IC50 (LS180): > 20 µM
IC50 (PCI): > 20 µM
Compound: CC(=O)Nc1ccc(N2C(=O)C(SCCO)=C(SCCO)C2=O)cc1 [PM-26, N-{4-[3,4-Bis-(2-hydroxy-ethylsulfanyl)-2,5-dioxo-2,5-dihydro-pyrrol-1-yl]-phenyl}-acetamide]
Inhibition of Hep3B cell growth (Hep3B cells): did not inhibit

Compound: CCOc1ccc(N2C(=O)C(SCCO)=C(SCCO)C2=O)cc1 [PM-28, 3,4-Bis-(2-hydroxy-ethylsulfanyl)-1-(4-ethoxyphenyl)-pyrrole-2,5-dione]
Potency at Hep3B cell growth inhibition compared with Cpd5 (Hep3B cells): more potent inhibitors than Cpd5

Compound: CCCOc1ccc(N2C(=O)C(SCCO)=C(SCCO)C2=O)cc1 [PM-30, 3,4-Bis-(2-hydroxy-ethylsulfanyl)-1-(4-propoxyphenyl)-pyrrole-2,5-dione]
Potency at Hep3B cell growth inhibition compared with Cpd5 (Hep3B cells): more potent inhibitors than Cpd5

Compound: O=C1C(SCCO)=C(SCCO)C(=O)N1c1ccc2ccccc2c1 [PM-34, 3,4-Bis-(2-hydroxy-ethylsulfanyl)-1-naphthalen-2-yl-maleimide]
Potency at Hep3B cell growth inhibition compared with Cpd5 (Hep3B cells): more potent inhibitors than Cpd5

Compound: O=C1C(SCCO)=C(SCCO)C(=O)N1c1ccc(OCc2ccccc2)cc1 [PM-38, 1-(4-Benzyloxy-phenyl)-3,4-bis-(2-hydroxy-ethylsulfanyl)-pyrrole-2,5-dione]
Inhibition of Hep3B cell growth (Hep3B cells): did not inhibit

IC50 (Hep3B cells; [4]): ~0.1 µM
Compound: O=C1C(SCCO)=C(SCCO)C(=O)N1c1ccc(-c2ccc([N+](=O)[O-])cc2)cc1 [PM-42, 1-(4′-nitro-biphenyl-4-yl)-3,4-bis-(2-hydroxy-ethylsulfanyl)-pyrrole-2,5-dione]

IC50 (Hep3B cells; Hep3B cells, 3 days of treatment, read-out: IC50, Hep3B cell growth inhibition): 30 µM
Compound: O=C1C(SCCO)=C(SCCO)C(=O)N1c1ccccc1 [PM-I]

Compound: N#CC(=C(/N)Sc1ccccc1N)/C(C#N)=C(\N)Sc1ccccc1N [U0126, reference compound]
Effect on the growth inhibitory effect of PM-20 (Hep3B cells; MEK1/2 inhibitor given with PM-20, inhibition of ERK1/2 phosphorylation): antagonized the growth inhibitory effect of PM-20

Compound: CC1=CC(=O)c2ccccc2C1=O [Vitamin K3]
LC50 [3]: 0.5 g/kg
